Here are results for three substances from US9725474B2, “Modified nucleic acid” (TAKEDA PHARMACEUTICAL COMPANY LIMITED, priority 2012, dated 2017).

Where “and” joins values, the source holds several entries; their conditions need not be identical. Equal entries are not always repeated.

For this series, the system named is GL3 luciferase gene. Description: Evaluation of each siRNA using Dual-Luc reporter system (expression-suppressive activity). It counts as cell-based, Human. The note with it: for IC50: HCT116 cells transfected with vector OFF#085 or OFF#086, siRNA reverse transfection with Lipofectamine RNAiMAX, two-night culture, luciferase activity (Renilla/firefly), Dual-Glo, read-out: 50% inhibition concentration; for suppressive activity against luciferase expression compared with control RNA: Dual-Luc reporter system, HCT116 cells, comparison drawn from Table 1. The procedure: Each siRNA was evaluated using a Dual-Luc reporter system as described below.
A restriction enzyme sequence was added to a sequence containing a 19-base sequence complementary to the antisense strand of siRNA against the GL3 luciferase gene (Elbashir S M et al., Nature, Vol. 411, 24 May 2001, 494-498), and its 5′-flanking 10 bases and 3′-flanking 10 bases. The resulting sequence was incorporated into the XhoI/NotI site of a psiCHECK2 plasmld (Promega KK) either in a forward direction (sequence A) or in a reverse direction (sequence B) to construct vectors for the expression of firefly Iuciferase and Renilla luciferase, OFF#085 and OFF#086, respectively.
Human colon cancer cell line HCT116 cells (ATCC) were inoculated at a density of 3×10^6 cells/10 ml/75 cm^2 flask. After overnight culture at 37° C. in 5% CO2, the cells were transfected with the vector OFF#085 or OFF#086 obtained in the preceding paragraph 1) using FuGENE 6 (F. Hoffmann-La Roche Ltd.) and further cultured overnight. Each siRNA synthesized in Example 5 and Comparative Example was diluted with PBS into two serial dilutions of 3.3 nM (final) and 0.0043 nM or 12 serial dilutions from 10 nM to 56 fM and used in reverse transfection of 1.6×10^4 cells/100 μL/well using Lipofectamine RNAiMAX reagent (Invitrogen Corp.). After two-night culture, firefly luciferase activity and Renilla luciferase activity were measured using Dual-Glo Luc Assay kit (Promega KK) according to the attached document. When the luciferase activity (Renilla/firefly) of cells reverse-transfected with 10 nM BLOCK-iT™ Alexa Fluor® Red Fluorescent Oligo (Invitrogen Corp.) was defined as 100%, the luciferase activity of the cells transfected with each siRNA was calculated. The IC50 value was calculated using GraphPad Prism 5.

“Control RNA: Control siRNA of sense strand SEQ ID NO: 4 and antisense strand SEQ ID NO: 5, free from compound 11 or 22 (sense CUUACGCUGAGUACUUCGATT; antisense UCGAAGUACUCAGCGUAAGTT; chemistry not fully specified) [reference compound]”: the IC50 was 0.024 nM and 0.012 nM. Regarding “siRNA (1): siRNA of sense strand SEQ ID NO: 1 and antisense strand SEQ ID NO: 2 containing one formula (II) partial structure U(K) induced from compound 11 (sense CUUACGCUGAGUACUUCGATT; antisense UCGAAGUACUCAGCGUAAGTT; chemistry not fully specified)”, the “suppressive activity against luciferase expression compared with control RNA” value is reported as “higher suppressive activity” and the IC50 amounted to 0.007 nM. On to “siRNA (2): siRNA of sense strand SEQ ID NO: 1 and antisense strand SEQ ID NO: 3 containing one formula (II) partial structure U(K2) induced from compound 22 (sense CUUACGCUGAGUACUUCGATT; antisense UCGAAGUACUCAGCGUAAGTT; chemistry not fully specified)”, for which the “suppressive activity against luciferase expression compared with control RNA” value is given as “higher suppressive activity” and the IC50 turned out to be 0.009 nM.
